Measurements published in patent US8530512B2, “Broad spectrum gram-positive antimicrobials and anthelmintics with efficacy against drug-resistant strains and Mycobacterium species” (priority 2004, dated 2013).
Converted amounts (≈) assume the structure as drawn. Where two headings read alike, the source gives them in different places.

Experiments:
Streptococcus pyogenes = assay: microbe, parasite or virus in culture; type: cell-based; conditions: for MIC: Streptococcus pyogenes, per-compound listing, Example 6, read-out: MIC S. pyogenes; for MIC S. pyogenes, G+: Table 3
Bacillus cereus = assay: microbe, parasite or virus in culture; type: cell-based; conditions: for MIC: Bacillus cereus, per-compound listing, Example 6, read-out: MIC B. cereus; for MIC B. cereus, G+ (anthrax surrogate): Table 3
C. elegans L1 larvae = assay: developmental assay; type: in vivo; set-up: key to Developmental score, 1/1600 / Developmental score, 1/800 / Developmental score, 1/400 / Developmental score, 1/200 / Developmental score, 1/100: dead (+++); distressed (++); slightly delayed (+); the same as M9-only untreated wells (−); conditions: after four days, Ive 1 ng/μL in each well; for Developmental score, 1/100: dilution 1/100; for Developmental score, 1/200: dilution 1/200; for Developmental score, 1/400: dilution 1/400; for Developmental score, 1/800: dilution 1/800; for Developmental score, 1/1600: dilution 1/1600
[1] = system: Staphylococcus aureus ATCC 29213; assay: microbe, parasite or virus in culture; type: cell-based; conditions: Staphylococcus aureus, ATCC29213
M. smegmatis = assay: MIC assay; type: cell-based; conditions: Mycolicibacterium smegmatis, read-out: MIC M. smegmatis
[2] = system: Staphylococcus aureus MRSA MC-1; assay: microbe, parasite or virus in culture; type: cell-based; conditions: Staphylococcus aureus, MRSA
[3] = system: Enterococcus faecium VRE 1; assay: organism not typed; type: cell-based; conditions: for MIC E. faecium VRE 1, G+: Table 3; for MIC: read-out: MIC VRE
C. elegans = assay: motility assay; type: in vivo; set-up: key to Movement score, 1/1600 / Movement score, 1/800 / Movement score, 1/400 / Movement score, 1/200 / Movement score, 1/100: normal (−); slow (+); very slow (++); not motile/paralyzed (+++); conditions: for Movement score, 1/100: dilution 1/100 of stock (10.24 μg/μL; SK-03-92 1.024 μg/μL); for Movement score, 1/100 / Movement score, 1/200 / Movement score, 1/400 / Movement score, 1/800 / Movement score, 1/1600: Ive 1 ng/μL in all wells; for Movement score, 1/200: dilution 1/200 of stock (10.24 μg/μL; SK-03-92 1.024 μg/μL); for Movement score, 1/400: dilution 1/400 of stock (10.24 μg/μL; SK-03-92 1.024 μg/μL); for Movement score, 1/800: dilution 1/800 of stock (10.24 μg/μL; SK-03-92 1.024 μg/μL); for Movement score, 1/1600: dilution 1/1600 of stock (10.24 μg/μL; SK-03-92 1.024 μg/μL), overnight 20° C.; for effect on worms at the lowest concentrations tested: at least triplicate
Mycobacterium chelonae = assay: MIC assay; type: cell-based; conditions: read-out: MIC M. chelonae
Mycobacterium fortuitum = assay: MIC assay; type: cell-based; conditions: Mycolicibacterium fortuitum, read-out: MIC M. fortuitum
[4] = system: Mycobacterium intracellulare; assay: MIC assay; type: cell-based; conditions: Mycobacterium intracellulare, read-out: MIC M. intracellulare
Mycobacterium avium = assay: MIC assay; type: cell-based; conditions: Mycobacterium avium, read-out: MIC M. avium
M. kansasii = assay: MIC assay; type: cell-based; conditions: Mycobacterium kansasii, read-out: MIC M. kansasii
[5] = per-compound listing, Example 6, read-out: MIC S. aureus
[6] = per-compound listing, Example 6
[7] = Table 6, read-out: MIC S. aureus ATCC 29213

SMILES: COc1ccc(O/C=C/c2cc(O)cc(OC)c2)cc1 [Compound A6, 4-Methoxyphenyl-E-(3-hydroxy-5methoxy)-styryl ether]
- MIC (Streptococcus pyogenes): 32 µg/mL (≈ 118 µM)
- MIC S. pyogenes, G+ (Streptococcus pyogenes): 32 µg/mL (≈ 118 µM)
- MIC (Bacillus cereus): 64 µg/mL (≈ 235 µM)
- MIC B. cereus, G+ (anthrax surrogate) (Bacillus cereus): 64 µg/mL (≈ 235 µM)
- Developmental score, 1/100 (C. elegans L1 larvae): +++
- Developmental score, 1/200 (C. elegans L1 larvae): +++
- Developmental score, 1/400 (C. elegans L1 larvae): +
- Developmental score, 1/800 (C. elegans L1 larvae): −
- Developmental score, 1/1600 (C. elegans L1 larvae): −
- MIC [1, 5]: 32 µg/mL (≈ 118 µM)
- MIC (M. smegmatis; [6]): 128 µg/mL (≈ 470 µM)
- MIC ([2]; read-out: MIC MRSA): 64 µg/mL (≈ 235 µM)
- MIC E. faecium VRE 1, G+ [3]: 64 µg/mL (≈ 235 µM)
- MIC [3]: 64 µg/mL (≈ 235 µM)
- Movement score, 1/100 (C. elegans): +++
- Movement score, 1/200 (C. elegans): +++
- Movement score, 1/400 (C. elegans): ++
- Movement score, 1/800 (C. elegans): +
- Movement score, 1/1600 (C. elegans): −

SMILES: COc1cc(O)cc(/C=C/Oc2cccc(OC)c2)c1 [Compound A8, 3-Methoxyphenyl-E-(3-hydroxy-5-methoxy)-styryl ether]
- MIC (Streptococcus pyogenes): 16 µg/mL (≈ 58.8 µM)
- MIC S. pyogenes, G+ (Streptococcus pyogenes): 16 µg/mL (≈ 58.8 µM)
- MIC (Bacillus cereus): 64 µg/mL (≈ 235 µM)
- MIC B. cereus, G+ (anthrax surrogate) (Bacillus cereus): 64 µg/mL (≈ 235 µM)
- Developmental score, 1/100 (C. elegans L1 larvae): +++
- Developmental score, 1/200 (C. elegans L1 larvae): +++
- Developmental score, 1/400 (C. elegans L1 larvae): −
- Developmental score, 1/800 (C. elegans L1 larvae): −
- Developmental score, 1/1600 (C. elegans L1 larvae): −
- MIC [1, 5]: 32 µg/mL (≈ 118 µM)
- MIC (M. smegmatis; [6]): 128 µg/mL (≈ 470 µM)
- MIC ([2]; read-out: MIC MRSA): 64 µg/mL (≈ 235 µM)
- MIC E. faecium VRE 1, G+ [3]: 64 µg/mL (≈ 235 µM)
- MIC [3]: 64 µg/mL (≈ 235 µM)
- Movement score, 1/100 (C. elegans): +++
- Movement score, 1/200 (C. elegans): ++
- Movement score, 1/400 (C. elegans): ++
- Movement score, 1/800 (C. elegans): +
- Movement score, 1/1600 (C. elegans): +

SMILES: COc1cc(O)cc(/C=C/Oc2cccc(C)c2)c1 [Compound A9, 3-Methylphenyl-E-(3-hydroxy-5-methoxy)-styryl ether]
- MIC (Streptococcus pyogenes): 32 µg/mL (≈ 125 µM)
- MIC S. pyogenes, G+ (Streptococcus pyogenes): 32 µg/mL (≈ 125 µM)
- MIC (Bacillus cereus): 32 µg/mL (≈ 125 µM)
- MIC B. cereus, G+ (anthrax surrogate) (Bacillus cereus): 16 µg/mL (≈ 62.4 µM)
- Developmental score, 1/100 (C. elegans L1 larvae): +++
- Developmental score, 1/200 (C. elegans L1 larvae): +++
- Developmental score, 1/400 (C. elegans L1 larvae): +++
- Developmental score, 1/800 (C. elegans L1 larvae): −
- Developmental score, 1/1600 (C. elegans L1 larvae): −
- MIC [1, 5]: 16 µg/mL (≈ 62.4 µM)
- MIC (M. smegmatis; [6]): 64 µg/mL (≈ 250 µM)
- MIC ([2]; read-out: MIC MRSA): 32 µg/mL (≈ 125 µM)
- MIC E. faecium VRE 1, G+ [3]: 32 µg/mL (≈ 125 µM)
- MIC [3]: 32 µg/mL (≈ 125 µM)
- Movement score, 1/100 (C. elegans): +++
- Movement score, 1/200 (C. elegans): +++
- Movement score, 1/400 (C. elegans): ++
- Movement score, 1/800 (C. elegans): ++
- Movement score, 1/1600 (C. elegans): +
- effect on worms at the lowest concentrations tested (C. elegans): reduced motility, paralysis, or death

SMILES: COc1cc(O)cc(/C=C/Oc2ccc(C)cc2)c1 [Compound A10, 4-Methylphenyl-E-(3-hydroxy-5-methoxy)-styryl ether]
- MIC (Streptococcus pyogenes): 32 µg/mL (≈ 125 µM)
- MIC S. pyogenes, G+ (Streptococcus pyogenes): 32 µg/mL (≈ 125 µM)
- MIC (Bacillus cereus): 64 µg/mL (≈ 250 µM)
- MIC B. cereus, G+ (anthrax surrogate) (Bacillus cereus): 64 µg/mL (≈ 250 µM)
- Developmental score, 1/100 (C. elegans L1 larvae): +++
- Developmental score, 1/200 (C. elegans L1 larvae): +++
- Developmental score, 1/400 (C. elegans L1 larvae): ++
- Developmental score, 1/800 (C. elegans L1 larvae): −
- Developmental score, 1/1600 (C. elegans L1 larvae): −
- MIC [1, 5]: 16 µg/mL (≈ 62.4 µM)
- MIC (M. smegmatis; [6]): > 128 µg/mL
- MIC ([2]; read-out: MIC MRSA): 32 µg/mL (≈ 125 µM)
- MIC E. faecium VRE 1, G+ [3]: 32 µg/mL (≈ 125 µM)
- MIC [3]: 32 µg/mL (≈ 125 µM)
- Movement score, 1/100 (C. elegans): +++
- Movement score, 1/200 (C. elegans): +++
- Movement score, 1/400 (C. elegans): +++
- Movement score, 1/800 (C. elegans): ++
- Movement score, 1/1600 (C. elegans): +
- effect on worms at the lowest concentrations tested (C. elegans): reduced motility, paralysis, or death

SMILES: COc1cc(O)cc(/C=C/c2ccc(O)cc2)c1 [SK-04-02]
- MIC (Mycobacterium chelonae): 32 µg/mL (≈ 132 µM)
- MIC (Mycobacterium fortuitum): 64 µg/mL (≈ 264 µM)
- MIC [1, 7]: 32 µg/mL (≈ 132 µM)
- MIC (M. smegmatis): 64 µg/mL (≈ 264 µM)
- MIC ([2]; Table 6, read-out: MIC S. aureus MC-1): 32 µg/mL (≈ 132 µM)
- MIC [4]: 16 µg/mL (≈ 66 µM)
- MIC (Mycobacterium avium): 16 µg/mL (≈ 66 µM)
- MIC (M. kansasii): 32 µg/mL (≈ 132 µM)

SMILES: COc1cc(O)cc(/C=C/c2cccc(O)c2)c1 [SK-04-03]
- MIC (Mycobacterium chelonae; Table 6): 64 µg/mL (≈ 264 µM)
- Developmental score, 1/100 (C. elegans L1 larvae): +++
- Developmental score, 1/200 (C. elegans L1 larvae): +
- Developmental score, 1/400 (C. elegans L1 larvae): −
- Developmental score, 1/800 (C. elegans L1 larvae): −
- Developmental score, 1/1600 (C. elegans L1 larvae): −
- MIC (Mycobacterium fortuitum; Table 6): 64 µg/mL (≈ 264 µM)
- MIC [1, 7]: 32 µg/mL (≈ 132 µM)
- MIC (M. smegmatis; Table 6): 64 µg/mL (≈ 264 µM)
- MIC ([2]; read-out: MIC S. aureus MC-1): 16 µg/mL (≈ 66 µM)
- MIC ([4]; Table 6): 16 µg/mL (≈ 66 µM)
- Movement score, 1/100 (C. elegans): ++
- Movement score, 1/200 (C. elegans): ++
- Movement score, 1/400 (C. elegans): +
- Movement score, 1/800 (C. elegans): +
- Movement score, 1/1600 (C. elegans): −
- MIC (Mycobacterium avium; Table 6): 8 µg/mL (≈ 33 µM)
- MIC (M. kansasii; Table 6): 64 µg/mL (≈ 264 µM)

SMILES: COc1cc(O)cc(C#Cc2ccccc2)c1 [SK-04-08]
- Developmental score, 1/100 (C. elegans L1 larvae): +++
- Developmental score, 1/200 (C. elegans L1 larvae): +++
- Developmental score, 1/400 (C. elegans L1 larvae): −
- Developmental score, 1/800 (C. elegans L1 larvae): −
- Developmental score, 1/1600 (C. elegans L1 larvae): −
- MIC (Mycobacterium fortuitum; Table 6): 32 µg/mL (≈ 143 µM)
- MIC [1, 7]: 32 µg/mL (≈ 143 µM)
- MIC (M. smegmatis; Table 6): 64 µg/mL (≈ 285 µM)
- MIC ([2]; read-out: MIC S. aureus MC-1): 1 µg/mL (≈ 4.46 µM)
- MIC ([4]; Table 6): 16 µg/mL (≈ 71.3 µM)
- Movement score, 1/100 (C. elegans): +++
- Movement score, 1/200 (C. elegans): +++
- Movement score, 1/400 (C. elegans): ++
- Movement score, 1/800 (C. elegans): +
- Movement score, 1/1600 (C. elegans): +
- MIC (Mycobacterium avium; Table 6): 16 µg/mL (≈ 71.3 µM)
- MIC (M. kansasii; Table 6): 32 µg/mL (≈ 143 µM)
